The text below walks through data of US7723328B2, “Methods of facilitating cell survival using neurotrophin mimetics” (The University of North Carolina at Chapel Hill, priority 2005, dated 2010).

For data set [1], the system named is E16-17 mouse hippocampal neurons. Put plainly: Hippocampal neuron survival (morphology plus MTT conversion). Type of data set: cell-based. Conditions: for neurotrophic activity (neuron survival response): 48 h, counts normalized to 25 ng/ml BDNF or baseline, up to 5 nM. The protocol:
(§1) Hippocampal neurons were prepared from E16-17 mouse embryos as previously described (Yang. T. et al. (2003) J Neurosci 23, 3353-3363). […] For studies employing p75^NTR+/+ and p75^NTR−/− neurons, mice carrying a mutation in exon 3 of the p75^NTR gene (Lee, K. F. et al. (1992) Cell 69, 737-749) were bred onto a B6 congenic background (>10 B6 backcrosses).
(§2) After 48 hours in culture, cell survival was assessed as previously described (Longo, F. M., Manthorpe. M., Xie. Y. M., Varon, S. (1997) J Neurosci Res 48, 1-17) using a combination of standard morphological criteria along with visual determination of whether a given cell converted MTT to its blue formazan product. The number of surviving neurons was determined by counting the total number of cells in each well that were both morphologically intact and filed with blue product (Longo F. M., Manthorpe. M., Xie, Y. M., Varon, S. (1997) J Neurosci Res 48, 1-17). For each neurotrophin or compound concentration, duplicate wells were counted and the resulting values averaged. Activity of each compound was confirmed by blinded counts. Counts were normalized to survival achieved with 25 ng/ml BDNF or to baseline survival. Fitting of dose-responsive curves was performed with Sigmaplot obtained from SYSTAT Software Inc. (Richmond, Calif., United States of America).

In a further data set the test system is chicken DRG neuronal. Put plainly: Chicken DRG neuronal survival assay. Type of data set: cell-based. To be noted: preliminary screening.
Another data set deals with E17 hippocampal neurons. Put plainly: Aβ-induced death of hippocampal neurons. The class given is cell-based. To be noted: for protection against Aβ1-42-induced death: NGF at 100 pg/ml. The protocol:
Using previously well established protocols, Aβ was preincubated for 3 days in water to allow formation of oligomers. E17 hippocampal neurons were incubated for 5 days to allow for maturation prior to addition of Aβ with test compounds.

Another data set relates to AKT. Put plainly: AKT activation western blot in hippocampal cultures. Type of data set: cell-based, mouse. The protocol:
(§3) For assays of Trk, AKT, NFκB, and ERK activation, hippocampal neurons derived from E16-17 mice were cultured in poly-L-lysine coated six-well plates (Corning, Inc., Corning, N.Y., United States of America) in DMEM containing 10% FBS, followed by incubation in serum-free DMEM for 2 hours before addition of neurotrophins or compounds. At the indicated time points, neurons were harvested in lysis buffer consisting of: 20 mM Tris, pH 8.0, 137 mM NaCl, 1% Igepal CA-630, 10% glycerol, 1 mM PMSF, 10 μg/ml aprotinin, 1 μg/ml leupeptin, 500 μM orthovanadate (Zhou, J., Valletta, J. S., Grimes, M. L., Mobley, W. C. (1995) J Neurochem 65, 1146-1156).
(§4) Lysates were centrifuged, the supernatant collected, and protein concentrations determined using the BCA Protein Assay Reagent obtained from Pierce (Rockford, Ill., United States of America). Western blots were performed as described previously (Yang, T. et al. (2003) J Neurosci 23, 3353-3363). Western blot signals were detected using the ECL Chemiluminescence System obtained by Amersham (Piscataway, N.J., United States of America) (Yang, T. et al. (2003) J Neurosci 23, 3353-3363).
In general terms: In western blotting, separated proteins are transferred to a membrane and probed.

The target of the next data set is T1, p75^NTR-Fc (Homo sapiens, UniProt P08138).
T1 construct: purchased R&D Systems
Put plainly: NGF/p75NTR-Fc binding by NGF ELISA, Gaddum/Schild fit. The protocol: (§5) Briefly, 96-well plates were incubated with 0.1 pmol (at 1 nM) of p75/Fc or TrkA/Fc recombinant protein obtained from R&D System (Minneapolis, Minn., United States of America) overnight at 4° C. followed by incubation with blocking buffer for 1 hour at room temperature. […] Plates were then washed five times with Tris-buffered saline (TBS) containing 0.05% Tween-20 and incubated with anti-NGF rabbit polyclonal antibody overnight at 4° C. Following five washes with TBS, wells were incubated for 2.5 hours at room temperature with anti-rabbit IgG HRP conjugate and washed five times. 3,3′,5,5′-tetramethyl-benzidine substrate was added and the optical density measured at 450 nm.
A regression analysis of NGF-p75^NTR binding in the presence of the p75-binding compounds was performed. The data was fit using the Nonlinear Regression module of Sigmaplot, to a modification of the Gaddum/Schild equation (adapted from Motulsky, H. J., and Christopoulos. A. (2003) A Practical Guide to Curve Fitting, 2nd edn. (San Diego, Calif., GraphPad Software, Inc.): […]
Background: An ELISA detects its analyte on a solid surface through an enzyme-linked reagent.

Data set [2] relates to hippocampal neurons. Put plainly: Hippocampal neuron survival with signaling pathway inhibitors. Type of data set: cell-based, mouse. Conditions: BDNF/NGF 25 ng/ml, compounds 5 nM, 48 h; for effect of PD98059 (ERK inhibitor) on survival promoted by the substance: PD98059 50 μM. The protocol:
as §1, §2
(§6) For all studies applying signaling inhibitors, p75^NTR antibodies or p75^NTR−/− neurons, survival was assessed at 48 hours.

In the next data set the test system is p75^NTR−/− cells. Put plainly: Survival of p75NTR+/+ versus p75NTR-/- hippocampal neurons. Type of data set: cell-based, mouse. To be noted: neurotrophins 1.8 nM, compounds 5 nM. The procedure:
as §1, §2, §6

Another data set relates to NFκB-p65. Put plainly: NFκB-p65 phosphorylation western blot in hippocampal cultures. The class given is cell-based, mouse. Conditions: 20 nM. The procedure: as §3, §4
A further data set deals with TrkA-Fc. Put plainly: NGF/TrkA-Fc binding by NGF ELISA. Conditions: up to 10,000 nM compound. The procedure: as §5
A further data set concerns the target T2, p75^NTR (Homo sapiens, UniProt P08138).
T2 construct: purchased R&D Systems
Put plainly: proNGF binding to p75NTR by ELISA. Conditions: 100 ng/ml proNGF. The protocol: as §5

Data set [3] has as its system hippocampal neurons. Put plainly: Hippocampal neuron survival with p75NTR antisera (antibody inhibition). The class given is cell-based, mouse. Conditions: antiserum 1:100, 48 h. The protocol: as §1, §2, §6
In a further data set the test system is mature oligodendrocytes. Put plainly: Oligodendrocyte cell death assay (MBP/TUNEL) with or without proNGF. Type of data set: cell-based, rat. To be noted: 24 h. The protocol: Cortical oligondendrocytes from rat pups were prepared as previously described (Yoon et al. (1998) J Neurosci 18, 3273-3281, Harrington, A. W., Kim, J. Y., Yoon, S. O. (2002) J Neurosci 22, 156-166). Cells were treated with recombinant, cleavage-resistant proNGF at 0.05 nM (2.8 ng/ml). Controls were treated with equivalent volumes of proNGF purification buffer containing 350 mM imidazole. 24 hours after treatment, the cells were fixed and processed for MBP and TUNEL staining as previously described (Beattie, M. S. et al. (2002) Neuron 36, 375-386). 200-250 cells were counted per well, for a minimum of 600 cells per experimental condition.

The target in another data set is T3, TrkB (Mus musculus, UniProt P15209).
T3 construct: endogenous in cells; host or cells: primary hippocampal neurons from E16-17 mouse embryos
Put plainly: Trk Y490 phosphorylation western blot in hippocampal neuron cultures. The class given is cell-based. Conditions: 10 or 30 minutes. The protocol: as §3, §4

Another data set deals with ERK42. Put plainly: ERK42 activation western blot in hippocampal cultures. Type of data set: cell-based, mouse. Conditions: compounds 20 nM, BDNF/NGF 50 ng/ml; 10 and 30 min. The procedure: as §3, §4

Entries after “also recorded” stand apart in the source; their conditions may differ. Bounds are passed on as bounds.

T1 sequence (P08138 with tags, fused parts or gaps limits assumed): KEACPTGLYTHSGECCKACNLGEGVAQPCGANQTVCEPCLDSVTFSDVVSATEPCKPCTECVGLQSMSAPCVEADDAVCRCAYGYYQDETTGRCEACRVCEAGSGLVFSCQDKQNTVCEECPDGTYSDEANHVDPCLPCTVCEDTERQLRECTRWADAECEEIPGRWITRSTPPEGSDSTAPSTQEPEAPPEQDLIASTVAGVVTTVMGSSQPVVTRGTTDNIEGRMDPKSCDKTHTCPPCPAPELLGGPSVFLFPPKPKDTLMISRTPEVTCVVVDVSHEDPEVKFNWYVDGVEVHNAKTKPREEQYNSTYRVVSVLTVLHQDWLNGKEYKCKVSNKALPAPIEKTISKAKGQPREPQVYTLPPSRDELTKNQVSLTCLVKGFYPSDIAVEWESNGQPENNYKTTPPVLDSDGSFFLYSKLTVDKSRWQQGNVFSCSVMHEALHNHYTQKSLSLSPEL
T3 sequence (P15209 32-821): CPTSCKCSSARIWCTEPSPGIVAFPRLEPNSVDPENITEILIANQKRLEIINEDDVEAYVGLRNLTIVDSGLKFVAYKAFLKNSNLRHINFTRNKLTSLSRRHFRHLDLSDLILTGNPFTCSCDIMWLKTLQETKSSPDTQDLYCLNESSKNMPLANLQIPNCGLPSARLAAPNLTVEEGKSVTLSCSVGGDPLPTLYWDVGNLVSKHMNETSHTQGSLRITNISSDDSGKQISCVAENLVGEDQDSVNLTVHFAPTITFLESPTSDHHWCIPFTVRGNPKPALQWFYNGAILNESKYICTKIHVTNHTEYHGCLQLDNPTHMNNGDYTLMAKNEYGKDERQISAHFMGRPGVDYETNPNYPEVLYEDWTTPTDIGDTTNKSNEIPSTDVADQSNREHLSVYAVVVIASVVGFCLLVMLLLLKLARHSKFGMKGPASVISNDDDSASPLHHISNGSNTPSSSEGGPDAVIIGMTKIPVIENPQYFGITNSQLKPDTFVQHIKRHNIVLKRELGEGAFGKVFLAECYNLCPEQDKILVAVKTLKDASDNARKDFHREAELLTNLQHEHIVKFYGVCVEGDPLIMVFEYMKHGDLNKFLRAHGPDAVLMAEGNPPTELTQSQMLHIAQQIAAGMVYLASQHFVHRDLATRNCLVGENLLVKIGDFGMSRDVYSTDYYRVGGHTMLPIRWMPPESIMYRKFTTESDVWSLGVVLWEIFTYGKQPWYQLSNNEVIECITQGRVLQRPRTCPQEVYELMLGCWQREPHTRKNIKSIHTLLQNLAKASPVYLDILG
T2 sequence (P08138 with tags, fused parts or gaps limits assumed): as the sequence (P08138 with tags, fused parts or gaps limits assumed) above

For the molecule `NCCNc1ccc([N+](=O)O)c(N2CCCCC2)c1` [Compound 1], in data set [1], the “neurotrophic activity (neuron survival response)” value is listed as “active”. The “activity in DRG neuronal survival” value in the data set with chicken DRG neuronal is recorded as “active”.
On to `N=C(N)NC(=N)NCCNC(=N)NC(=N)N` [Compound 7], for which the “neurotrophic activity (neuron survival response)” value in [1] is on record as “active”. The “activity in DRG neuronal survival” value in the data set on chicken DRG neuronal is “active”.
Molecule “Aβ1-42: amyloid-β, preincubated for 3 days in water to allow formation of oligomers [reference compound]” displayed a loss of neurons in the data set with E17 hippocampal neurons (Aβ1-42 10 μM or 30 μM, 3 day exposure, no compound) of around 40%.
In the case of `Cn1c(=O)c2c(ncn2CC(=O)NCc2ccco2)n(C)c1=O` [Compound 6], in the data set with E17 hippocampal neurons (Aβ1-42 10 μM), the “protection against Aβ1-42-induced death” value was “failed to block”.
With `CN(C)CCCNC(=O)Cn1cnc2c1c(=O)n(C)c(=O)n2C` [Compound 3], the “onset of AKT activation” value in the data set on AKT (20 nM, relative to NGF) is given as “slower than that of NGF”. Besides, the “compound concentration at which binding curve differs from 0 nM curve (P<0.0001)” value on p75^NTR-Fc (ANOVA with post-hoc Bonferroni/Dunn) is reported as at least 125 nM. The Schild coefficient on p75^NTR-Fc (Gaddum-Schild fit) was 0.26 +/−0.01. In addition, the “shift of the NGF/p75NTR-Fc binding curve” value on p75^NTR-Fc (increasing compound concentrations) is “significantly to the right”. In addition, in the data set on hippocampal neurons [2], the “effect of PD98059 (ERK inhibitor) on survival promoted by the substance” value was “no significant decrease”. Moreover, the “effect of SN50 (NFκB translocation inhibitor) on survival promoted by the substance” value in the data set on hippocampal neurons [2] (SN50 2.5 μg/ml) was “significantly reduced”. In the data set with p75^NTR−/− cells, the “effect of p75NTR-deficiency on promotion of neuron survival by the substance” value is recorded as “completely inhibits”. The “increase in NFκB-p65 phosphorylation” value with NFκB-p65 is given as “approximately 1.5 fold”. Besides, in the data set on E17 hippocampal neurons (Aβ1-42 10 μM), the “protection against Aβ1-42-induced death” value was “blocks Aβ-induced death with a dose-response effect”. For the same molecule, in the data set on E17 hippocampal neurons (Hippocampal neuron, Aβ1-42 10 μM, read-out: EC50 for blocking Aβ-induced death), the EC50 (as a rule, the concentration that produces a half-maximal response) was around 10 nM. Also, the “effect on NGF binding to TrkA-Fc” value with TrkA-Fc is “did not affect; also recorded: no compound effects up to 10,000 nM”. The “proNGF ELISA signal versus proNGF alone” value at p75^NTR (P<0.01) is reported as “significantly less than proNGF alone”. Moreover, the “decrement of proNGF binding to p75NTR” value on p75^NTR (at the highest concentration (range 1500 nM to 10,000 nM)) was “approximately 30%”. For the same molecule, in the data set on hippocampal neurons [3], the “effect of Ab 9651 on promotion of neuron survival by the substance” value is recorded as “completely blocked; also recorded: completely inhibits” and the “survival versus CM in the presence of Ab 9651” value is on record as “not significant”. In [1] (5 nM compound along with 50 ng/ml NGF), the “additive effect on survival with NGF” value is “no additive effect on survival”. Moreover, the “inhibition of proNGF-induced oligodendrocyte death” value with mature oligodendrocytes (2.8 ng/ml (0.05 nM) proNGF) is reported as “significantly inhibited; also recorded: blocked cell death”. Moreover, the “promotion of oligodendrocyte cell death by compound alone” value with mature oligodendrocytes (absence of proNGF) is recorded as “did not promote cell death”.

B1: BDNF: brain-derived neurotrophic factor from Sigma-Aldrich (protein, UniProt P23560 19-247, looked up)
Neurotrophic factor BDNF …: APMKEANIRGQGGLAYPGVRTHGTLESVNGPKAGSRGLTSLADTFEHVIEELLDEDQKVRPNEENNKDADLYTSRVMLSSQVPLEPPLLFLLEEYKNYLDAANMSMRVRRHSDPARRGELSVCDSISEWVTAADKKTAVDMSGGTVTVLEKVPVSKGQLKQYFYETKCNPMGYTKEGCRGIDKRHWNSQCRTTQSYVRALTMDSKKRIGWRFIRIDTSCVCTLTIKRGR
As for B1, the AKT activation result in the data set with AKT (compounds 20 nM, BDNF/NGF 50 ng/ml, 10 and 30 min) was “substantially greater response”. Also, the “effect of PD98059 (ERK inhibitor) on survival promoted by the substance” value with hippocampal neurons [2] is given as “significantly decreased; also recorded: small effects”. In the data set on p75^NTR−/− cells, the “effect of p75NTR-deficiency on promotion of neuron survival by the substance” value is “partial responsiveness; also recorded: partially inhibits” and the “survival in p75NTR−/− cultures, comparison of treatments” value is given as “greater survival than NGF”. Besides, the “TrkB activation (Trk Y490 phosphorylation)” value in the data set with TrkB was “robust Trk activation; also recorded: activated TrkB”. Also, in the data set on hippocampal neurons [3], the “effect of Ab 9651 on promotion of neuron survival by the substance” value was “partially blocked; also recorded: partially inhibits” and the “survival versus CM in the presence of Ab 9651” value was “significantly greater than CM+Ab 9651”. Besides, in the data set on ERK42, the ERK42 activation entry was “greater with BDNF and NGF treatment than with the p75-binding compounds; also recorded: prolonged activation”.
